ChEMBL document CHEMBL4837181 (Eur J Med Chem, 2020)

What was measured:
[1] = Change in AUC (infinity) in rat at 37 umol/kg, po measured upto 72 hrs by LC-MS/MS analysis; assay type: ADME, organism-based; settings: in vivo, at 37 µmol/kg
[2] = Change in Cmax in rat at 185 umol/kg, po measured upto 72 hrs by LC-MS/MS analysis; assay type: ADME, organism-based; settings: in vivo, at 185 µmol/kg
[3] = Change in Cmax in rat at 37 umol/kg, po measured upto 72 hrs by LC-MS/MS analysis; assay type: ADME, organism-based; settings: in vivo, at 37 µmol/kg
[4] = Dose normalized Cmax in rat at 50 mg/kg, po measured upto 72 hrs by LC-MS/MS analysis; assay type: ADME, organism-based; settings: in vivo
[5] = Change in normalised AUC (infinity) in rat at 50 mg/kg, po measured upto 72 hrs by LC-MS/MS analysis; assay type: ADME, organism-based; settings: in vivo
[6] = Chemical stability of compound in simulated gastric fluid assessed as compound remaining at 5 uM measured after 24 hrs by LC-MS/MS analysis; assay type: ADME, physicochemical; settings: read-out: Stabilty
[7] = Stability in human plasma assessed as parent compound remaining measured after 6 hrs by LC-MS/MS analysis; assay type: ADME, cell-free; settings: read-out: Stabilty
[8] = Change in normalised Cmax in rat at 10 mg/kg, po measured upto 72 hrs by LC-MS/MS analysis; assay type: ADME, organism-based; settings: in vivo
[9] = Dose normalized AUC (0 to infinity) in rat at 10 mg/kg, po measured upto 72 hrs by LC-MS/MS analysis; assay type: ADME, organism-based; settings: in vivo
[10] = Chemical stability of compound in 0.1 N aqueous HCl buffer assessed as compound remaining at pH 1 at 5 uM measured after 24 hrs by LC-MS/MS analysis; assay type: physicochemical; settings: pH 1, 24 h
[11] = Chemical stability of compound in PBS buffer assessed as compound remaining at pH 7.4 at 5 uM measured after 24 hrs by LC-MS/MS analysis; assay type: physicochemical; settings: read-out: Stabilty
[12] = Dose normalized Cmax in rat at 10 mg/kg, po measured upto 72 hrs by LC-MS/MS analysis; assay type: ADME, organism-based; settings: in vivo
[13] = Chemical stability of compound in simulated intestinal fluid assessed as compound remaining at 5 uM measured after 3 hrs by LC-MS/MS analysis; assay type: ADME, physicochemical; settings: read-out: Stabilty
[14] = Chemical stability of compound in simulated gastric fluid assessed as compound remaining at 5 uM measured after 1.5 hrs by LC-MS/MS analysis; assay type: ADME, physicochemical; settings: read-out: Stabilty
[15] = Stability in mouse plasma assessed as parent compound remaining measured after 2 hrs by LC-MS/MS analysis; assay type: ADME, cell-free; settings: read-out: Stabilty
[16] = Chemical stability of compound in 0.1 N aqueous HCl buffer assessed as compound remaining at pH 1 at 5 uM measured after 1.5 hrs by LC-MS/MS analysis; assay type: physicochemical; settings: pH 1, 1.5 h
[17] = Chemical stability of compound in PBS buffer assessed as compound remaining at pH 7.4 at 5 uM measured after 6 hrs by LC-MS/MS analysis; assay type: physicochemical; settings: read-out: Stabilty
[18] = Stability in rat plasma assessed as parent compound remaining measured after 2 hrs by LC-MS/MS analysis; assay type: ADME, cell-free; settings: read-out: Stabilty
[19] = Dose normalized AUC (0 to infinity) in rat at 50 mg/kg, po measured upto 72 hrs by LC-MS/MS analysis; assay type: ADME, organism-based; settings: in vivo
[20] = Change in normalised Cmax in rat at 50 mg/kg, po measured upto 72 hrs by LC-MS/MS analysis; assay type: ADME, organism-based; settings: in vivo
[21] = Stability in human plasma assessed as parent compound remaining measured after 24 hrs by LC-MS/MS analysis; assay type: ADME, cell-free; settings: read-out: Stabilty
[22] = Change in normalised AUCinfinity in rat at 10 mg/kg, po measured upto 72 hrs by LC-MS/MS analysis; assay type: ADME, organism-based; settings: in vivo
[23] = Chemical stability of compound in simulated intestinal fluid assessed as compound remaining at 5 uM measured after 24 hrs by LC-MS/MS analysis; assay type: ADME, physicochemical; settings: read-out: Stabilty
[24] = Chemical stability of compound in saline assessed as compound remaining at 5 uM measured after 24 hrs by LC-MS/MS analysis; assay type: physicochemical; settings: read-out: Stabilty

Q: Which Activity [1] does the source give for `CCOC(=O)[C@@H](Cc1cn(C)c2ccccc12)NC(=O)[C@@H](N)CC(C)C.O=P(O)(O)O` here?
A: The Activity was 61%.

Q: What about the Activity [2] of the same molecule?
A: The Activity was 69%.

Q: And the Activity [3]?
A: The Activity was 84%.

Q: Which results are given for `CCOC(=O)[C@H](N)Cc1cn(C)c2ccccc12.Cl`?
A: Cmax/dose [4]: 66 µM; Activity [5]: 126%; remaining at 24 h, 5 µM [6]: 85%; remaining at 6 h [7]: 93%; Activity [8]: 27%; AUC/dose [9]: 454 µM·h; Stabilty [10]: 100%; remaining at 24 h, 5 µM [11]: 52%; Cmax/dose [12]: 22 µM; remaining at 3 h, 5 µM [13]: 64%; remaining at 1.5 h, 5 µM [14]: 83%; remaining at 2 h [15]: 0%; Stabilty [16]: 59%; remaining at 6 h, 5 µM [17]: 94%; remaining at 2 h [18]: 0%; AUC/dose [19]: 2988 µM·h; Activity [20]: 143%; remaining at 24 h [21]: 35%; Activity [22]: -11%; remaining at 24 h, 5 µM [23]: 0%; remaining at 24 h, 5 µM [24]: 100%

Q: What does the source list for `Cn1cc(C[C@@H](N)C(=O)OCC(O)CO)c2ccccc21.O=P(O)(O)O` (some centres not stated)?
A: Activity [1]: 46%; Activity [2]: 153%; Activity [3]: 37%
